Results reported in patent US20230330095A1, “PHARMACEUTICAL COMPOSITION FOR ANTI-CANCER COMPRISING NUPR1 ISOFORM A INHIBITOR” (SEOUL NATIONAL UNIVERSITY R&DB FOUNDATION, priority 2022, published 2023).
pKd: −log10 of the molar value.

What was measured:
GBM-28 [1] = assay: cell proliferation analysis (MTS assay); assay type: cell-based, human
Procedure: (§1) In order to confirm the anticancer efficacy of NUPR1 isoform A inhibitors in brain tumors, experiments were performed using brain tumor patient-derived cell lines obtained from primary glioblastoma patients (GBM-28) and secondary gliosarcoma patients (GBM-37).
(§2) In addition, after treating GBM-28 and GBM-37 with 3dc, cell proliferation analysis (MTS assay) was performed. As a result of treating GBM-28 and GBM-37 with 3dc, respectively, it was confirmed that cell proliferation was inhibited compared to the untreated control group, and compared to the control group overexpressing (OE) NUPR1 isoform A in GBM-28, in the case of i) treating 3dc, ii) transfecting the NUPR1 isoform A with siRNAs of SEQ ID NOs: 5 and 6 (siNUPR1a), and iii) transfecting 3dc-treated NUPR1 isoform A with siRNAs of SEQ ID NOs: 5 and 6, the cell proliferation was all inhibited. In addition, compared to the untreated control GBM-37, in the case of i) transfecting the NUPR1 isoform A with siRNAs of SEQ ID NOs: 5 and 6 and ii) transfecting 3dc-trated NUPR1 isoform A with siRNAs of SEQ ID NOs: 5 and 6, the cell proliferation was all inhibited, confirming that 3dc inhibited the proliferation ability of brain tumor cells expressing the NUPR1 isoform A (FIG. 11).

GBM-37 [2] = assay: cell proliferation analysis (MTS assay); assay type: cell-based, human; details: compared to untreated control
Procedure: as §1, §2

NUPR1 isoform A [3] = target: NUPR1 isoform A (Homo sapiens, UniProt O60356); assay: calorimetric titration of 3dc and NUPR1 isoform A; details: read-out: binding affinity between the NUPR1 isoform A and 3dc
Procedure: Additionally, calorimetric titrations of 3dc and the NUPR1 isoform A were determined.

HCT116 [4] = assay: cell viability, colon cancer cells; assay type: cell-based; details: as treatment concentration of 3dc increased
Text: (§3) For colon cancer cells, HT29 and HCT116, as the treatment concentration of 3dc, a NUPR1 isoform A inhibitor, increased, cell viability decreased, confirming the anticancer efficacy of 3dc (FIG. 22).

HT29 [5] = assay: cell viability, colon cancer cells; assay type: cell-based; details: as treatment concentration of 3dc increased
Text: as §3

GBM-28 [6] = assay: cell viability with increasing 3dc concentration; assay type: cell-based, human; details: as treatment concentration of 3dc increased
Procedure: as §1

GBM-37 [7] = assay: cell viability with increasing 3dc concentration; assay type: cell-based, human; details: as treatment concentration of 3dc increased
Procedure: as §1

KATOIII = assay: cell viability, gastric cancer cells; assay type: cell-based; details: as treatment concentration of 3dc increased
Text: (§4) For gastric cancer cells, KATOIII and NCl-N87, as the treatment concentration of 3dc, a NUPR1 isoform A inhibitor, increased, cell viability decreased, confirming the anticancer efficacy of 3dc (FIG. 35).

NCl-N87 = assay: cell viability, gastric cancer cells; assay type: cell-based; details: as treatment concentration of 3dc increased
Text: as §4

SNU790 = assay: cell viability, thyroid cancer cells; assay type: cell-based; details: as treatment concentration of 3dc increased
Text: (§5) For thyroid cancer cells, SNU80 and SNU790, as the treatment concentration of 3dc, a NUPR1 isoform A inhibitor, increased, cell viability decreased, confirming the anticancer efficacy of 3dc (FIG. 25).

SNU80 = assay: cell viability, thyroid cancer cells; assay type: cell-based; details: as treatment concentration of 3dc increased
Text: as §5

NUPR1 isoform A [8] = assay: NUPR1 isoform A mRNA expression level in GBM-28 and GBM-37; assay type: cell-based, human; details: GBM-28 and GBM-37 cell lines, treated versus untreated
Procedure: as §1

A549 [9] = assay: mouse model intravitreally injected with lung cancer cells, tumor size; assay type: in vivo; details: A549 in Balb/c nude mice, 1 mM 3dc, visually observed after 1, 2, 3 and 4 weeks
Procedure: (§6) In addition, lung cancer cells, A549 and NCI-H1299 was intravitreal injected into 6-week-old male Balb/c nude mice at 3×10^5 cells/2 μl according to a method disclosed in Lee et al. Experimental & Molecular Medicine (2019) 51:43, and then the tumor size of 1 mM 3dc treatment group (experimental group) and the untreated group (control group) was visually observed after 1 week, 2 weeks, 3 weeks and 4 weeks.

NCI-H1299 [10] = assay: as above; assay type: in vivo; details: NCI-H1299 in Balb/c nude mice, 1 mM 3dc, visually observed after 1, 2, 3 and 4 weeks
Procedure: as §6

GBM-37 [11] = assay: cDNA microarray transcriptome analysis; assay type: cell-based, human
Procedure: In addition, GBM-37 was treated with 100 nM of 3dc, and transcriptome changes were confirmed through cDNA microarray analysis.

DU145 = assay: cell viability, prostate cancer cells; assay type: cell-based; details: as treatment concentration of 3dc increased
Text: (§7) For prostate cancer cells, DU145 and PC3, as the treatment concentration of 3dc, a NUPR1 isoform A inhibitor, increased, cell viability decreased, confirming the anticancer efficacy of 3dc (FIG. 21).

PC3 = assay: cell viability, prostate cancer cells; assay type: cell-based; details: as treatment concentration of 3dc increased
Text: as §7

GBM-37 [12] = assay: invasion and proliferation assay; assay type: cell-based, human; details: GBM-37 compared with GBM-28
Procedure: as §1

Caov3 = assay: cell viability, ovary cancer cells; assay type: cell-based; details: as treatment concentration of 3dc increased
Text: (§8) For ovary cancer cells, Caov3 and SKOV3, as the treatment concentration of 3dc, a NUPR1 isoform A inhibitor, increased, cell viability decreased, confirming the anticancer efficacy of 3dc (FIG. 30).

SKOV3 = assay: cell viability, ovary cancer cells; assay type: cell-based; details: as treatment concentration of 3dc increased
Text: as §8

HCT116 [13] = assay: mouse model intravitreally injected with colon cancer cells, tumor size; assay type: in vivo; details: HCT116 in Balb/c nude mice, 1 mM 3dc, visually observed after 1, 2, 3 and 4 weeks
Procedure: (§9) In addition, colon cancer cells, HT29 and HCT116 was intravitreal injected into 6-week-old male Balb/c nude mice at 3×10^5 cells/2 μl according to a method disclosed in Lee et al. Experimental & Molecular Medicine (2019) 51:43, and then the tumor size of 1 mM 3dc treatment group (experimental group) and the untreated group (control group) was visually observed after 1 week, 2 weeks, 3 weeks and 4 weeks.

HT29 [14] = assay: as above; assay type: in vivo; details: HT29 in Balb/c nude mice, 1 mM 3dc, visually observed after 1, 2, 3 and 4 weeks
Procedure: as §9

SK-MEL1 = assay: cell viability, skin cancer cells; assay type: cell-based; details: as treatment concentration of 3dc increased
Text: (§10) For skin cancer cells, A375P and SK-MEL1, as the treatment concentration of 3dc, a NUPR1 isoform A inhibitor, increased, cell viability decreased, confirming the anticancer efficacy of 3dc (FIG. 29).

A375P = assay: cell viability, skin cancer cells; assay type: cell-based; details: as treatment concentration of 3dc increased
Text: as §10

GBM-37 [15] = assay: cholecystokinin (CCK) measurement after treatment; assay type: cell-based, human; details: GBM-37 compared with GBM-28
Procedure: as §1
In addition, after treating GBM-28 and GBM-37 with temozolomide and 3dc, respectively, cholecystokinin (CCK) results were measured.

Hep3B = assay: cell viability, liver cancer cells; assay type: cell-based; details: as treatment concentration of 3dc increased
Text: (§11) For liver cancer cells, HepG2 and Hep3B, as the treatment concentration of 3dc, a NUPR1 isoform A inhibitor, increased, cell viability decreased, confirming the anticancer efficacy of 3dc (FIG. 31).

HepG2 = assay: cell viability, liver cancer cells; assay type: cell-based; details: as treatment concentration of 3dc increased
Text: as §11

MCF7 = assay: cell viability, breast cancer cells; assay type: cell-based; details: as treatment concentration of 3dc increased
Text: (§12) For breast cancer cells, BT-20 and MCF7, as the treatment concentration of 3dc, a NUPR1 isoform A inhibitor, increased, cell viability decreased, confirming the anticancer efficacy of 3dc (FIGS. 32, 33, and 34).

BT-20 = assay: cell viability, breast cancer cells; assay type: cell-based; details: as treatment concentration of 3dc increased
Text: as §12

NUPR1 isoform A [16] = assay: immunochemical analysis of nuclear transfer of NUPR1 isoform A; assay type: cell-based, human; details: GBM-37, immunochemical analysis
Procedure: as §1
First, through immunochemical analysis, it was confirmed that when GBM-37 was treated with 3dc, nuclear transfer of the NUPR1 isoform A was inhibited, as shown in FIG. 6.

GBM-37 [17] = assay: cell viability after 3dc pre-treatment and temozolomide (anticancer adjuvant); assay type: cell-based, human
Procedure: To confirm whether 3dc, a NUPR1 isoform A inhibitor, may be applied as an anticancer adjuvant, brain tumor cell GBM-37 was treated with temozolomide (TMZ) and 3dc, and cell viability was confirmed.
GBM-37 was pre-treated with 50 nM, 100 nM, and 200 nM of 3dc for 24 hours, and then was treated with 250 μM, 500 μM, 1000 μM, 2000 μM, and 4000 μM of temozolomide, respectively, and cell viability was confirmed.

A549 [18] = assay: cell viability, lung cancer cells; assay type: cell-based; details: as treatment concentration of 3dc increased
Text: (§13) For lung cancer cells, A549 and NCI-H1299, as the treatment concentration of 3dc, a NUPR1 isoform A inhibitor, increased, cell viability decreased, confirming the anticancer efficacy of 3dc (FIG. 26).

NCI-H1299 [19] = assay: cell viability, lung cancer cells; assay type: cell-based; details: as treatment concentration of 3dc increased
Text: as §13

GBM-37 [20] = assay: wound healing assay; assay type: cell-based, human; details: GBM-37 compared with GBM-28
Procedure: as §1

[21] = GBM-28 overexpressing (OE) NUPR1 isoform A, MTS assay, compared to OE control group
[22] = GBM-37, gene ontology and network analysis

NUPR1 isoform A (Homo sapiens, UniProt O60356), sequence (O60356 1-100 isoform O60356-2): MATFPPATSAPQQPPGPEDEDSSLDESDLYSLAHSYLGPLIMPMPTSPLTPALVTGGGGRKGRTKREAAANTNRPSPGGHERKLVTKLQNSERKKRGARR

siNUPR1a: siRNAs of SEQ ID NOs: 5 and 6 directed against NUPR1 isoform A (chain 1 GCCUAUGCCCACUUCACCUUU; chain 2 AGGUGAAGUGGGCAUAGGCUU; listed as RNA, chemistry not given here)
inhibited: cell proliferation (GBM-28 [1]; [21]) | cell proliferation (GBM-37 [2]; GBM-37, MTS assay)

FC(F)(F)c1ccc2c(c1)N(CCCCN1CCC(N3CCCC3)CC1)c1ccccc1S2 [3dc, 10-(4-(4-(pyrrolidin-1-yl)piperidin-1-yl)butyl)-2-(trifluoromethyl)-10H-phenothiazine]
better effect: cholecystokinin (CCK) results (GBM-37 [15])
better: invasion inhibitory effect (GBM-37 [12]) | proliferation inhibitory effect (GBM-37 [12])
significantly decreased: mRNA expression level of NUPR1 isoform A (NUPR1 isoform A [8])
down-regulated: genes related to essential cell phenomena such as DNA repair, cell migration, and cell cycle (GBM-37 [11]; GBM-37, 100 nM 3dc, cDNA microarray)
significantly reduced: cell viability compared to the untreated control group (GBM-37 [17]; GBM-37, 2000 μM temozolomide, 3dc at 50 nM, 100 nM and 200 nM) | cell viability compared to the untreated control group (GBM-37 [17]; GBM-37 pre-treated 24 hours with 50, 100, 200 nM 3dc, then 250-4000 μM temozolomide)
destroyed: basic cellular components such as DNA packaging complexes and nucleosomes (GBM-37 [11]; [22])
significantly inhibited: basic biological processes such as DNA packaging and protein-DNA complex assembly (GBM-37 [11]; [22]) | basic molecular functions such as nucleic acid binding and RNA binding (GBM-37 [11]; [22])
smaller and more transparent: tumor size compared with control group (A549 [9]) | tumor size compared with control group (NCI-H1299 [10]) | tumor size compared with control group (HCT116 [13]) | tumor size compared with control group (HT29 [14])
affected or down-regulated: genomic aberrations of coding genes: most chromosomal genes (GBM-37 [11]; GBM-37, based on the transcriptome analysis)
inhibited: cell proliferation (GBM-28 [1]; GBM-28, MTS assay, compared to untreated control group) | cell proliferation (GBM-28 [1]; GBM-28 overexpressing (OE) NUPR1 isoform A, 3dc treatment combined with siNUPR1a transfection, compared to OE control group) | cell proliferation (GBM-28 [1]; [21]) | cell proliferation (GBM-37 [2]; GBM-37, 3dc treatment combined with siNUPR1a transfection) | cell proliferation (GBM-37 [2]; GBM-37, MTS assay) | nuclear transfer of the NUPR1 isoform A (NUPR1 isoform A [16])
better inhibitory effect: inhibitory effect on cell migration (GBM-37 [20])
decreased: cell viability (HCT116 [4]) | cell viability (HT29 [5]) | cell viability (GBM-28 [6]) | cell viability (GBM-37 [7]) | cell viability (KATOIII) | cell viability (NCl-N87) | cell viability (SNU790) | cell viability (SNU80) | cell viability (DU145) | cell viability (PC3) | cell viability (Caov3) | cell viability (SKOV3) | cell viability (SK-MEL1) | cell viability (A375P) | cell viability (Hep3B) | cell viability (HepG2) | cell viability (MCF7) | cell viability (BT-20) | cell viability (A549 [18]) | cell viability (NCI-H1299 [19])
4.05: pKd (NUPR1 isoform A [3])
